Where two headings read alike, the source gives them in different places.
Key:
11β-hsd-1 enzyme [1] = biological target: T1, 11β-hsd-1 enzyme (Homo sapiens, UniProt P28845); experiment: 11β-hsd-1 enzyme assay, Kiapp determination (3H-cortisone to cortisol, radio-HPLC); format: biochemical; settings: read-out: Ki app
11β-hsd-1 enzyme [2] = biological target: T1, 11β-hsd-1 enzyme; experiment: 11β-hsd-1 enzyme assay, percentage of inhibition (3H-cortisone to cortisol, radio-HPLC); format: biochemical; settings: read-out: % inh @ 0.1 uM

T1 sequence (P28845 whole entry, species assumed): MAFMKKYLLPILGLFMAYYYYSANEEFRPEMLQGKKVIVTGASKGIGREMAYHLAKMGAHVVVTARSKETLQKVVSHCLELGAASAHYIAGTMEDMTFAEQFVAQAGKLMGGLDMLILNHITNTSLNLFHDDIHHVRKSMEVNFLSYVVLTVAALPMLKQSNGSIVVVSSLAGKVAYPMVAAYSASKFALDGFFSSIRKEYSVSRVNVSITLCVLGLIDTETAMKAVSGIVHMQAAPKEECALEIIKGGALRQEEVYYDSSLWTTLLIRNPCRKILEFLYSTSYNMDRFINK

| Structure (SMILES) | inhibition at 0.1 µM (11β-hsd-1 enzyme [2]; compound at 0.1 uM) [%] | inhibition at 0.1 µM (11β-hsd-1 enzyme [2]; 0.1 uM) [%] | other results |
| --- | --- | --- | --- |
| CCOc1ccc(-c2ccc(S(=O)(=O)Nc3cccc(C)n3)cc2)c(C)c1 [Example 254] | 85.4 | – | Ki (11β-hsd-1 enzyme [1]; apparent Ki, 11β-hsd-1 enzyme): 22.4 nM |
| Cc1cccc(NS(=O)(=O)c2ccc(C(F)(F)F)cc2)n1 [Example 35] | – | 98 | Ki (11β-hsd-1 enzyme [1]): 108 nM |
| Cc1cccc(NS(=O)(=O)c2ccc(-c3cccc(O)c3)cc2C)n1 [Example 185] | – | 71 | Ki (11β-hsd-1 enzyme [1]): 46 nM |
| Cc1cccc(NS(=O)(=O)c2ccc(-c3ccc(F)cc3C)cc2C)n1 [Example 204] | 85 | – | Ki (11β-hsd-1 enzyme [1]; apparent Ki, 11β-hsd-1 enzyme): 10 nM |
| Cc1cccc(NS(=O)(=O)N2CCc3ccccc3C2)n1 [Example 300] | 88.3 | – | Ki (11β-hsd-1 enzyme [1]; apparent Ki, 11β-hsd-1 enzyme): 11 nM |
| Cc1c(Cl)cccc1S(=O)(=O)Nc1cccc(N)n1 [Example 41] | – | 94 | Ki (11β-hsd-1 enzyme [1]): 17 nM |
| Cc1cccc(NS(=O)(=O)c2ccc(-c3ccccc3F)cc2C)n1 [Example 186] | – | 95 | Ki (11β-hsd-1 enzyme [1]): 9.3 nM |
| CCN(CC)C(=O)Cc1cccc(NS(=O)(=O)c2ccc3ccccc3c2)n1 [Example 22] | – | 44.7 | Ki (11β-hsd-1 enzyme [1]): 170 nM |
| Cc1cccc(NS(=O)(=O)c2ccc(-c3cccc(F)c3F)cc2C)n1 [Example 198] | 100 | – | Ki (11β-hsd-1 enzyme [1]; apparent Ki, 11β-hsd-1 enzyme): 7.5 nM |
| CCN(CC)C(=O)Cc1cccc(NS(=O)(=O)c2cccc(Cl)c2C)n1 [Example 20] | – | – | Ki (11β-hsd-1 enzyme [1]): 220 nM |
| Cc1cccc(NS(=O)(=O)c2ccc(-c3ccc(C(C)C)cc3)c(C)c2)n1 [Example 233] | 78 | – | Ki (11β-hsd-1 enzyme [1]; apparent Ki, 11β-hsd-1 enzyme): 110 nM |
| CCc1cccc(NS(=O)(=O)c2ccc(C(F)(F)F)cc2)n1 [Example 71] | – | 66 | Ki (11β-hsd-1 enzyme [1]): 34.6 nM |
| Cc1cccc(NS(=O)(=O)c2ccc(-c3ccccc3O)cc2C)n1 [Example 181] | – | 83 | Ki (11β-hsd-1 enzyme [1]): 53 nM |
| CCc1cccc(NS(=O)(=O)c2cccc(Cl)c2C)n1 [Example 56] | – | 66.8 | Ki (11β-hsd-1 enzyme [1]): 47.6 nM |
| COc1ccc(-c2ccc(S(=O)(=O)Nc3cccc(C)n3)c(C)c2)cc1C [Example 205] | 86 | – | Ki (11β-hsd-1 enzyme [1]; apparent Ki, 11β-hsd-1 enzyme): 19 nM |
| Cc1cccc(NS(=O)(=O)c2ccc(-c3cccc(CO)c3)c(C)c2)n1 [Example 226] | 94 | – | Ki (11β-hsd-1 enzyme [1]; apparent Ki, 11β-hsd-1 enzyme): 460 nM |
| Cc1cccc(NS(=O)(=O)N2CCC(Oc3ccccc3)CC2)n1 [Example 314] | 71.8 | – | Ki (11β-hsd-1 enzyme [1]; apparent Ki, 11β-hsd-1 enzyme): 52 nM |
| Cc1cccc(NS(=O)(=O)c2ccc(-c3ccc(F)c(Cl)c3)cc2C)n1 [Example 170] | – | 93 | Ki (11β-hsd-1 enzyme [1]): 8.1 nM |
| CCN(CC)C(=O)Cc1cccc(NS(=O)(=O)c2ccc(C(F)(F)F)cc2)n1 [Example 21] | – | – | Ki (11β-hsd-1 enzyme [1]): 480 nM |

| Structure (SMILES) | inhibition at 0.1 µM (11β-hsd-1 enzyme [2]; compound at 0.1 uM) [%] | inhibition at 0.1 µM (11β-hsd-1 enzyme [2]; 0.1 uM) [%] | other results |
| --- | --- | --- | --- |
| Cc1cccc(NS(=O)(=O)N2CCC(c3ccncc3)C2)n1 (centres unmarked) [Example 297, 3-Pyridin-4-yl-pyrrolidine-1-sulfonic acid (6-methyl-pyridin-2-yl)-amide] | 3.4 | – | – |
| Cc1c(Cl)cccc1S(=O)(=O)Nc1cccc(NC(=O)C2CCCN2)n1 (centres unmarked) [Example 296, Pyrrolidine-2-carboxylic acid [6-(3-chloro-2-methyl-benzenesulfonylamino)-pyridin-2-yl]-amide] | 16 | – | – |
| COc1ccc(S(=O)(=O)Nc2cccc(C)n2)cc1 [Example 81] | – | 23.4 | – |
| CCCCc1ccc(-c2ccc(S(=O)(=O)Nc3cccc(C)n3)cc2C)cc1 [Example 246] | 65 | – | – |
| Cc1c(Cl)cccc1S(=O)(=O)Nc1cccc(CC(=O)N2CCOCC2)n1 [Example 8, 3-Chloro-2-methyl-N-[6-(2-morpholin-4-yl-2-oxo-ethyl)-pyridin-2-yl]-benzenesulfonamide] | – | 5.52 | – |
| Cc1cccc(NS(=O)(=O)c2ccc(-c3ccc(F)cc3F)cc2)n1 [Example 142] | – | 84.5 | – |
| COc1ccc(C)nc1NS(=O)(=O)c1ccc(C(F)(F)F)cc1 [Example 89] | – | 3.7 | – |
| Cc1c(Cl)cccc1S(=O)(=O)Nc1cccc(CC(=O)NC23CC4CC(CC(C4)C2)C3)n1 [Example 27, N-Adamantan-1-yl-2-[6-(3-chloro-2-methyl-benzenesulfonylamino)-pyridin-2-yl]-acetamide] | – | 1.9 | – |
| Cc1c(Cl)cccc1S(=O)(=O)Nc1cccc(CC(=O)N2CCCC2)n1 [Example 17] | – | 11.4 | – |
| CCc1ccc(-c2ccc(S(=O)(=O)Nc3cccc(C)n3)cc2C)cc1 [Example 235] | 87 | – | – |
| COc1c(C)cc(-c2ccc(S(=O)(=O)Nc3cccc(C)n3)cc2)cc1C [Example 156] | – | 65.6 | – |
| Cc1c(Cl)cccc1S(=O)(=O)Nc1cccc(CC(=O)N2CCN(Cc3ccccc3)CC2)n1 [Example 12] | – | – | inhibition at 0.1 µM (11β-hsd-1 enzyme [2]): 21.5% |
| COc1ccc(C(C)C)cc1-c1ccc(S(=O)(=O)Nc2cccc(C)n2)cc1C [Example 239] | 65 | – | – |
| CCOc1ccc(-c2ccc(S(=O)(=O)Nc3cccc(C)n3)cc2C)cc1 [Example 229] | 9 | – | – |
| Cc1c(Cl)cccc1S(=O)(=O)Nc1cccc(CC(=O)N2CCC(F)(F)CC2)n1 [Example 32] | – | 20.4 | – |
| COc1ccc(-c2ccc(S(=O)(=O)Nc3cccc(C)n3)cc2C)cc1F [Example 231] | 63 | – | – |
| Cc1cccc(NS(=O)(=O)N2CCN3CCC[C@H]3C2)n1 [Example 302] | 18.1 | – | – |
| Cc1c(Cl)cccc1S(=O)(=O)Nc1cccc(CC(=O)N2CCCCC2)n1 [Example 9] | – | 54.8 | – |

Now from value to compound, other results behind:

| inhibition at 0.1 µM (11β-hsd-1 enzyme [2]; compound at 0.1 uM) [%] | inhibition at 0.1 µM (11β-hsd-1 enzyme [2]; 0.1 uM) [%] | Structure (SMILES) | other results |
| --- | --- | --- | --- |
| – | 90 | O=S(=O)(Nc1ccc2ccccc2n1)c1ccc(-c2ccc(F)cc2)cc1 [Example 48] | Ki (11β-hsd-1 enzyme [1]): 14.5 nM |
| 100 | – | Cc1cccc(NS(=O)(=O)c2ccc(-c3ccc(C#N)cc3)cc2C)n1 [Example 277, 4′-Cyano-3-methyl-biphenyl-4-sulfonic acid (6-methyl-pyridin-2-yl)-amide] | Ki (11β-hsd-1 enzyme [1]; apparent Ki, 11β-hsd-1 enzyme): < 1 nM |
| – | 52 | Cc1cccc(NS(=O)(=O)c2ccc(-c3ccccc3)cc2)n1 [Example 36] | Ki (11β-hsd-1 enzyme [1]): 48 nM |
| – | 90.3 | COc1ccc(-c2ccc(S(=O)(=O)Nc3cccc(C)n3)cc2)cc1 [Example 161] | Ki (11β-hsd-1 enzyme [1]): 22.5 nM |
| – | 86.8 | Cc1cccc(NS(=O)(=O)c2ccc(-c3ccc(F)cc3)cc2)n1 [Example 128] | Ki (11β-hsd-1 enzyme [1]): 19.7 nM |
| 92.9 | – | Cc1cccc(NS(=O)(=O)c2ccc(-c3ccc(C#N)cc3)c(C)c2)n1 [Example 281] | Ki (11β-hsd-1 enzyme [1]; apparent Ki, 11β-hsd-1 enzyme): 10 nM |
| – | 100 | Cc1cc(C)nc(NS(=O)(=O)c2ccc(-c3ccc(C#N)cc3)cc2)c1 [Example 96] | Ki (11β-hsd-1 enzyme [1]): 7 nM |
| – | 66.8 | COc1cccc(-c2ccc(S(=O)(=O)Nc3cccc(C)n3)cc2)c1 [Example 160] | Ki (11β-hsd-1 enzyme [1]): 36.2 nM |
| 100 | – | Cc1cccc(NS(=O)(=O)c2ccc(-c3ccc(C#N)cc3)cc2O)n1 [Example 286, 4′-Cyano-3-hydroxy-biphenyl-4-sulfonic acid (6-methyl-pyridin-2-yl)-amide] | Ki (11β-hsd-1 enzyme [1]; apparent Ki, 11β-hsd-1 enzyme): 6.2 nM |
| 100 | – | COc1cc(S(=O)(=O)Nc2cccc(C)n2)ccc1-c1ccc(C#N)cc1 [Example 258] | Ki (11β-hsd-1 enzyme [1]; apparent Ki, 11β-hsd-1 enzyme): 5.9 nM |
| 74.7 | – | Cc1cccc(NS(=O)(=O)c2ccc(-c3ccncc3)cc2)n1 [Example 257] | Ki (11β-hsd-1 enzyme [1]; apparent Ki, 11β-hsd-1 enzyme): 120 nM |
| – | 85.4 | CCOC(=O)Cc1cccc(NS(=O)(=O)c2ccc(-c3ccc(C#N)cc3)cc2)n1 [Example 2] | Ki (11β-hsd-1 enzyme [1]): 16 nM |
| 96 | – | Cc1cccc(NS(=O)(=O)c2ccc(-c3ccc(Cl)cc3)cc2)n1 [Example 249, 4′-Chloro-biphenyl-4-sulfonic acid (6-methyl-pyridin-2-yl)-amide] | Ki (11β-hsd-1 enzyme [1]; apparent Ki, 11β-hsd-1 enzyme): 5.8 nM |
| – | 83.3 | Cc1cccc(NS(=O)(=O)c2ccc(-c3cccc(COc4ccccc4)c3)cc2)n1 [Example 155] | – |
| – | 5.4 | Cc1cc(C)c2ccc(NS(=O)(=O)c3ccc(-c4ccc(C#N)cc4)cc3)nc2n1 [Example 106] | – |
| 30 | – | Cc1cccc(NS(=O)(=O)c2ccc(-c3ccccn3)cc2)n1 [Example 259, N-(6-Methyl-pyridin-2-yl)-4-pyridin-2-yl-benzenesulfonamide trifuoroacetate] | – |

| inhibition at 0.1 µM (11β-hsd-1 enzyme [2]; compound at 0.1 uM) [%] | inhibition at 0.1 µM (11β-hsd-1 enzyme [2]; 0.1 uM) [%] | Structure (SMILES) | other results |
| --- | --- | --- | --- |
| – | 20.4 | CC(=O)Nc1ccc(-c2ccc(S(=O)(=O)Nc3cccc(C)n3)cc2)cc1 [Example 149] | – |
| – | 61.7 | Cc1cccc(NS(=O)(=O)c2ccc(-c3cccc(C#N)c3)cc2)n1 [Example 132] | – |
| – | 79.3 | Cc1cccc(NS(=O)(=O)c2ccc(-c3ccc(F)c(C)c3)cc2)n1 [Example 150] | – |
| – | 86.3 | CSc1ccc(-c2ccc(S(=O)(=O)Nc3cccc(C)n3)cc2)cc1 [Example 129] | – |
| – | 46.5 | Cc1cccc(NS(=O)(=O)c2ccc(-c3ccc(CO)cc3)cc2)n1 [Example 146] | – |
| – | 29.5 | COc1ccc(F)cc1-c1ccc(S(=O)(=O)Nc2cccc(C)n2)cc1 [Example 147] | – |
| 67 | – | Cc1cccc(NS(=O)(=O)c2ccc(-c3cccc(C#N)c3)c(C)c2)n1 [Example 220] | – |
| – | 90.4 | Cc1cccc(NS(=O)(=O)c2ccc(-c3ccc(OCc4ccccc4)cc3)cc2)n1 [Example 159] | – |
| – | 8.2 | COc1cccc(NS(=O)(=O)c2ccc(-c3ccc(C#N)cc3)cc2)n1 [Example 78] | – |
| – | 53.4 | N#Cc1ccc(-c2ccc(S(=O)(=O)Nc3ccccn3)cc2)cc1 [Example 82] | – |
| – | 80.6 | Cc1cccc(NS(=O)(=O)c2ccc(-c3cc(F)cc(F)c3)cc2)n1 [Example 145] | – |
| – | 85.7 | Cc1cccc(NS(=O)(=O)c2ccc(-c3ccccc3C(F)(F)F)cc2)n1 [Example 122] | – |
| – | 77.6 | Cc1cccc(NS(=O)(=O)c2ccc(-c3ccccc3C)cc2)n1 [Example 126] | – |
| 11.8 | – | Cc1cccc(NS(=O)(=O)c2ccc(-c3ccc(OCCN)cc3)cc2)n1 [Example 263, 4′-(2-Amino-ethoxy)-biphenyl-4-sulfonic acid (6-methyl-pyridin-2-yl)-amide] | – |
| 44 | – | Cc1cccc(NS(=O)(=O)c2ccc(-c3ccc(O)cc3)cc2)n1 [Example 252] | – |

From US20050148631A1, “Amino heterocyclyl inhibitors of 11-beta-hydroxy steroid dehydrogenase type 1” (AGOURON PHARMACEUTICALS, INC., priority 2003, published 2005)
